Test results reported in patent US4794114A, “Inhibition of interleukin-1 production by monocytes and/or macrophages” (SmithKline Beckman Corporation, priority 1987, dated 1988).
Like-named read-outs stand apart in the source and are kept apart here.

Assays:
[1] = test system: IL-1 production by splenic adherent cells; assay: adjuvant-induced arthritis in the rat: IL-1 production by LPS-stimulated splenic adherent cells; format: in vivo; conditions: for IL-1 Production (splenic adherent cells), % normal control: mg/kg: Compound 1 60, indomethacin 2.0, prednisolone 10, methotrexate 0.3, D-penicillamine 50; for effect in adjuvant arthritic rats: short-term treatment
Method: (§1) Adjuvant-induced arthritis in the rat is a model of systemic inflammation with characteristics similar to rheumatoid arthritis in man. […] This model was employed to assess the effect of Compound 1 in vivo on this elevated IL-1 production. Briefly, rats were injected on day 0 with Freund's complete adjuvant in the right hind leg. Drugs were prepared as a suspension in tragacanth and administered daily per os either prophylactically (days 1 to 16) or therapeutically in a short-term modality (days 14 to 16). In all cases, final administration of drug occurred at 3 hours prior to sacrifice. Spleens were removed from these rats and the adherent cells were assessed for their ability to produce IL-1 in vitro in response to stimulation by LPS.
(§2) PROPHYLACTIC TREATMENT: Drugs were administered daily p.o. as a suspensio
(§3) in tragacanth from day 1 to day 16. Final dose given 3 hrs before
(§4) TREATMENT: Drugs were administered daily p.o. as above from
(§5) day 14 to day 16. Final dose given 3 hrs before sacrifice.
(§6) ***P < 0.01 Indomethacin 2.0 mg/kg
(§7) **P < 0.05 Compound 1 60 mg/kg
(§8) *P < 0.10 Prednisolone 10 mg/kg
(§9) D-Penicillamine 50 mg/kg

[2] = test system: adjuvant-induced arthritis in the rat; assay: adjuvant-induced arthritis in the rat: right leg paw edema; format: in vivo; conditions: mg/kg: Compound 1 60, indomethacin 2.0, prednisolone 10, methotrexate 0.3, D-penicillamine 50
Method: as §1, §2, §3, §4, §5, §6, §7, §8, §9

[3] = test system: splenic adherent cells; assay: adjuvant-induced arthritis in the rat: % splenic adherent cells; format: in vivo; conditions: mg/kg: Compound 1 60, indomethacin 2.0, prednisolone 10, methotrexate 0.3, D-penicillamine 50
Method: as §1, §2, §3, §4, §5, §6, §7, §8, §9

[4] = test system: PGE2; assay: in vitro prostaglandin (PGE2) synthesis by LPS-stimulated human monocytes, RIA; format: cell-based; conditions: for inhibition at 0.1 µM / inhibition at 1 µM / inhibition at 10 µM: Homo sapiens, Monocyte, read-out: % Inhibition PGE2
Method: (§10) Bacterial lipopolysaccharide (LPS) was used to induce IL-1 production by human peripheral blood monocytes. IL-1 activity was measured by its ability to stimulate a Interleukin 2 (IL-2) producing cell line (EL-4) to secrete IL-2, in concert with A23187 ionophore, according to the method of Simon et al., J. Immunol. Methods, 84, 85, (1985). Human peripheral blood monocytes were isolated and purified from either fresh blood preparations from volunteer donors, or from blood Bank buffy coats, according to the procedure of Colotta et al., J. Immunol., 132, 936 (1984). 1×10^6 of such monocytes are plated in 24-well plates at a concentration of 2 million/ml per well. The cells were allowed to adhere for 2 hours, after which time non-adherent cells were removed by gentle washing. Test compounds were then added to the cells for 1 hour (hr) before the addition of lipopolysaccharide (10 ng/ml unless otherwise noted), and the cultures were incubated at 37° C. for an additional 24 hours. At the end of the incubation period, culture supernatants were removed and clarified of cells and all debris. Culture supernatants were immediately assayed for IL-1 biological activity as well as prostaglandin and/or leukotriene concentrations by radioimmunoassay.
^(c) PGE2 was assayed using an RIA kit.

[5] = test system: IL-1 production by human monocytes; assay: in vitro IL-1 production by LPS-stimulated human peripheral blood monocytes (EL-4 readout); format: cell-based; conditions: for inhibition at 0.1 µM / inhibition at 1 µM / inhibition at 10 µM: Homo sapiens, Monocyte
Method: The effects of antiinflammatory/antiarthritic drugs of different classes, including Compound 1 on the in vitro production of IL-1 by human monocytes was examined.
as §10
^(a) All compounds, except chloroquine, were dissolved in absolute
ethanol at 10^-2 M, which was subsequently diluted further in tissue
assay system at doses tested. Furthermore, test samples were dialyzed
prior to testing in the IL1 assay.
In order to elucidate the mechanism by which Compound 1 mediates its anti-inflammatory activity, the ability of this compound and two closely related analog metabolites, (i.e., the analogs of Compound 1 wherein X is S(0)n and n is 1 or 2) to inhibit human IL-1 production in vitro was evaluated according to the method of Example 1. Briefly, 1×10^6 human peripheral blood monocytes were plated in 24-well plates and allowed to adhere for 1 hr at 37° C. The above compounds were added to a final concentration of 10^-5 M to 10^-8 M. The monocytes were stimulated to produce IL-1 with 1 ng/ml LPS after a 1 hr pretreatment of the cells with the respective compounds.
The inhibitory effect of additional compounds of Formula (I) on the in vitro production of IL-1 production of IL-1 by human monocytes was determined according to the procedure of Examples 1 and 2.

[6] = test system: IL-1 production by human monocytes; conditions: Lipsky, Amer. J. Med. 75, Supp. 1A, 19 (1983); cited from earlier work
[7] = test system: endotoxin shock in C57B1/6 mice; format: in vivo, mouse; conditions: mouse, in vivo
Method: Mice are very resistant to the lethal effects of bacterial lipopolysaccharides (LPS). D-Galactosamine (D-GALN) induces a high degree of sensitization to the lethal effects of LPS in mice and other experimental animals. [See, Galanos et al., Proc. Natl. Acad Sci. USA., 76, 5939 (1979)]. In mice, depending on the strain and age, the sensitivity to endotoxin can be increased many thousand-fold.
A number of preliminary experiments were carried out to establish this model of lethal endotoxin shock.

[8] = in vitro; format: cell-based, human; conditions: human, peripheral blood monocytes
Method: as §10
^(b) At doses at or above 10^-5 M, this compound exerted some

[9] = prophylactic, daily p.o. days 1-16
[10] = therapeutic, daily p.o. days 14-16
[11] = 10^-6 M, Table 3, read-out: % Inhibition @ 10^-6 M
[12] = 10^-5 M, read-out: % Inhibition IL-1
[13] = 10^-6 M, read-out: % Inhibition IL-1
[14] = 10^-7 M, read-out: % Inhibition IL-1

With `COc1ccc2c(c1)c(CC(=O)O)c(C)n2C(=O)c1ccc(Cl)cc1` [INDOMETHACIN, indomethacin] as the compound, how does the “IL-1 Production (splenic adherent cells), % normal control” value [1, 9] read?
The value was 274 ± 100 % normal control.

What about the “IL-1 Production (splenic adherent cells), % normal control” value [1, 10] of the same compound?
The value was 330 ± 121 % normal control.

What about the “effect in adjuvant arthritic rats” value ([1]; therapeutic) of the same compound?
Its value is “no effect”.

What about the “Right leg paw edema, % normal control” value [2, 9] of the same compound?
The value was 113 ± 8 % normal control.

What about the “Right leg paw edema, % normal control” value [2, 10] of the same compound?
The value was 145 ± 18 % normal control.

And the “% Adherent Cells (splenic), % normal control” value [3, 9]?
The value was 480 ± 189 % normal control.

And the “% Adherent Cells (splenic), % normal control” value [3, 10]?
Its value is 394 ± 253 % normal control.

Which inhibition at 0.1 µM [4] does the source give for `CCN(CC)CCCC(C)Nc1ccnc2cc(Cl)ccc12` (stereo not drawn) [Chloroquine] here?
Its inhibition at 0.1 µM is 0%.

What about the inhibition at 1 µM [4] of the same compound?
Its inhibition at 1 µM is 0%.

And the inhibition at 10 µM [4]?
Its inhibition at 10 µM is 84%.

What about the inhibition at 0.1 µM ([5]; read-out: % Inhibition IL-1) of the same compound?
The inhibition at 0.1 µM was 36%.

What about the inhibition at 1 µM ([5]; read-out: % Inhibition IL-1) of the same compound?
Its inhibition at 1 µM is 46%.

And the inhibition at 10 µM ([5]; read-out: % Inhibition IL-1)?
Its inhibition at 10 µM is 89%.

What about the “inhibition of IL-1 production” value ([5]; doses one or two logs higher than Compound 1) of the same compound?
Its value is “only marginally active”.

And the “inhibition of IL-1 production, literature” value [6]?
The value was “inhibit IL-1 production”.

Which inhibition at 1 µM [5, 11] does the source give for `COc1ccc(-c2nc3n(c2-c2ccncc2)CCS3)cc1` [Compound 6] here?
Its inhibition at 1 µM is 64%.

With `COc1ccc(-c2nc3n(c2-c2ccncc2)CCC3)cc1` [Compound 7] as the compound, how does the inhibition at 1 µM [5, 11] read?
The inhibition at 1 µM was 40%.

Which “effect in adjuvant arthritic rats” value ([1]; therapeutic) does the source give for `CC(=O)OC[C@H]1O[C@@H]([S-])[C@H](OC(C)=O)[C@@H](OC(C)=O)[C@@H]1OC(C)=O.CCP(CC)CC.[Au+]` [auranofin] here?
The value was “no effect”.

Which results are given for `CC(C)(S)[C@@H](N)C(=O)O` [D-PENICILLAMINE, d-penicillamine]?
IL-1 Production (splenic adherent cells), % normal control [1, 9]: 336 ± 170 % normal control; IL-1 Production (splenic adherent cells), % normal control [1, 10]: 374 % normal control; effect in adjuvant arthritic rats ([1]; therapeutic): no effect; Right leg paw edema, % normal control [2, 9]: 184 ± 20 % normal control; Right leg paw edema, % normal control [2, 10]: 191 ± 13 % normal control; % Adherent Cells (splenic), % normal control [3, 9]: 372 ± 117 % normal control; % Adherent Cells (splenic), % normal control [3, 10]: 217 ± 6 % normal control

With `Fc1ccc(-c2c(-c3ccncc3)nc3n2CCS3)cc1` [Compound 4] as the compound, how does the inhibition at 1 µM [5, 11] read?
The inhibition at 1 µM was 46%.

Which results are given for `Fc1ccc(-c2nc3n(c2-c2ccncc2)CCC3)cc1` [Compound 5]?
protection from lethal effects of LPS/GALN [7]: protective effects; inhibition at 1 µM [5, 11]: 78%

With `CC(Cc1ccc(O)c(O)c1)C(C)Cc1ccc(O)c(O)c1` (stereo not drawn) [NDGA, nordihydroguaiaretic acid] as the compound, how does the “inhibition of prostaglandin synthesis” value [4] read?
The value was “little inhibitory effect on prostaglandin synthesis”.

And the inhibition at 10 µM ([4]; 10^-5 M)?
The inhibition at 10 µM was 25%.

And the inhibition at 1 µM ([4]; 10^-6 M)?
Its inhibition at 1 µM is 0%.

What about the inhibition at 0.1 µM ([4]; 10^-7 M) of the same compound?
Its inhibition at 0.1 µM is 0%.

And the viability at 24 h, 10 µM [8]?
Its viability at 24 h, 10 µM is about 50%.

And the “inhibition of IL-1 production” value [5]?
Its value is “marginally active in inhibition of IL-1 production”.

What about the inhibition at 10 µM [5, 12] of the same compound?
Its inhibition at 10 µM is 88%.

What about the inhibition at 1 µM [5, 13] of the same compound?
Its inhibition at 1 µM is 33%.

And the inhibition at 0.1 µM [5, 14]?
The inhibition at 0.1 µM was 31%.

Which results are given for `CC(C)Cc1ccc(C(C)C(=O)O)cc1` (stereo not drawn) [Ibuprofen, ibuprofen]?
inhibition of prostaglandin synthesis [4]: highly active in inhibiting prostaglandin synthesis; inhibition at 10 µM ([4]; 10^-5 M): 97%; inhibition at 1 µM ([4]; 10^-6 M): 71%; inhibition at 0.1 µM ([4]; 10^-7 M): 63%; inhibition of IL-1 production [5]: virtually no effect on IL-1 production; inhibition at 10 µM [5, 12]: 9%; inhibition at 1 µM [5, 13]: 0%; inhibition at 0.1 µM [5, 14]: 0%
